Measurements reported in ChEMBL document CHEMBL1201862, “PubChem BioAssay data set” (2004).
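1) Cells in 96-well plates. 2) Compound, 48 h, 5 concentrations. 3) Linear interpolation between surrounding doses. 4) Unreached endpoint = highest concentration. The concentration for 50% growth inhibition is given as GI50.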 Calls of active or inactive are those of the source. No stated cut-off is given here; in the data, active = GI50 up to about 1.1 µM and inactive = higher.

Legend:
Test in all cases: growth of human tumour cells (NCI), 48 h
[1] = test system: U-251
[2] = test system: ACHN
[3] = test system: HOP-62
[4] = test system: SK-MEL-2
[5] = test system: HL-60
[6] = test system: OVCAR-4
[7] = test system: SF-539
[8] = test system: KM12
[9] = test system: SF-295
[10] = test system: MOLT-4
[11] = test system: Hs-578T
[12] = test system: Malme-3M
[13] = test system: K562
[14] = test system: CCRF-CEM
[15] = test system: A549
[16] = test system: COLO 205
[17] = test system: HCT-116
[18] = test system: SK-MEL-5
[19] = test system: UACC-62
[20] = test system: LOX IMVI

| Compound | GI50 [1] | GI50 [2] | GI50 [3] | GI50 [4] | GI50 [5] | GI50 [6] | GI50 [7] | GI50 [8] | GI50 [9] | GI50 [10] | GI50 [11] | GI50 [12] | GI50 [13] | GI50 [14] | GI50 [15] | GI50 [16] | GI50 [17] | GI50 [18] | GI50 [19] | GI50 [20] |
| --- | --- | --- | --- | --- | --- | --- | --- | --- | --- | --- | --- | --- | --- | --- | --- | --- | --- | --- | --- | --- |
| C/C(=N\NC(=S)NNC(=S)N(C)c1ccccc1)c1ccccn1 | 1.11 µM (active) | 0.628 µM (active) | 0.885 µM (active) | 5.68 µM (inactive) | 0.343 µM (active) | 1.75 µM (inactive) | 2.07 µM (inactive) | 4.21 µM (inactive) | 2.94 µM (inactive) | 0.43 µM (active) | 26 µM (inactive) | 1.66 µM (inactive) | 2.31 µM (inactive) | 0.399 µM (active) | 1.11 µM (active) | 0.673 µM (active) | 0.673 µM (active) | – | – | – |
| CN(C)CCN(/C(=N/c1ccccc1)N1CCCC1)c1ccccc1 | 68.5 µM (inactive) | > 100 µM (inactive) | 23.4 µM (inactive) | > 100 µM (inactive) | 11.6 µM (inactive) | 49.5 µM (inactive) | – | 20 µM (inactive) | 18.4 µM (inactive) | 4.92 µM (inactive) | > 100 µM (inactive) | > 100 µM (inactive) | 10.3 µM (inactive) | 8.69 µM (inactive) | 58.3 µM (inactive) | 16.9 µM (inactive) | 3.91 µM (inactive) | 30.2 µM (inactive) | 11.9 µM (inactive) | 4.06 µM (inactive) |
| COc1cc2c(cc1OC)-c1cc3ccc(OC)c(OC)c3c[n+]1CC2 [PALMATINE CHLORIDE] | 27.9 µM (inactive) | > 100 µM (inactive) | > 100 µM (inactive) | 97.1 µM (inactive) | > 100 µM (inactive) | > 100 µM (inactive) | > 100 µM (inactive) | > 100 µM (inactive) | > 100 µM (inactive) | > 100 µM (inactive) | > 100 µM (inactive) | > 100 µM (inactive) | 52.4 µM (inactive) | > 100 µM (inactive) | > 100 µM (inactive) | 24.4 µM (inactive) | > 100 µM (inactive) | 34.8 µM (inactive) | > 100 µM (inactive) | – |
| CCNc1nc2c(ncn2C2CC(O)C(COP(=O)(O)O)O2)c(=O)[nH]1 (configuration not stated) | > 100 µM (inactive) | > 100 µM (inactive) | > 100 µM (inactive) | > 100 µM (inactive) | > 100 µM (inactive) | > 100 µM (inactive) | > 100 µM (inactive) | > 100 µM (inactive) | > 100 µM (inactive) | – | > 100 µM (inactive) | > 100 µM (inactive) | – | – | > 100 µM (inactive) | > 100 µM (inactive) | > 100 µM (inactive) | > 100 µM (inactive) | > 100 µM (inactive) | > 100 µM (inactive) |
| O=c1[nH]c2ccc(C(F)(F)F)cc2nc1-c1ccccc1 | – | > 100 µM (inactive) | > 100 µM (inactive) | – | > 100 µM (inactive) | – | > 100 µM (inactive) | – | > 100 µM (inactive) | > 100 µM (inactive) | 59.6 µM (inactive) | > 100 µM (inactive) | > 100 µM (inactive) | > 100 µM (inactive) | > 100 µM (inactive) | > 100 µM (inactive) | > 100 µM (inactive) | > 100 µM (inactive) | > 100 µM (inactive) | > 100 µM (inactive) |
| Oc1c(Cl)c(Cl)c(O)c(-c2cnc(-c3ncc(-c4c(O)c(Cl)c(Cl)c(O)c4Cl)s3)s2)c1Cl | 22.6 µM (inactive) | 23.3 µM (inactive) | 54.2 µM (inactive) | 18.4 µM (inactive) | 33.3 µM (inactive) | 80.5 µM (inactive) | 24.3 µM (inactive) | 29.2 µM (inactive) | 19.9 µM (inactive) | > 100 µM (inactive) | 15.2 µM (inactive) | 29.4 µM (inactive) | 34.1 µM (inactive) | 8.53 µM (inactive) | 29.6 µM (inactive) | 28.6 µM (inactive) | 21.1 µM (inactive) | 7.8 µM (inactive) | 19.7 µM (inactive) | – |
| C[C@]12CCC3c4ccc(O)cc4CC[C@H]3C1CC(=O)N(N)C2=O (some centres not stated) | > 100 µM (inactive) | > 100 µM (inactive) | > 100 µM (inactive) | – | > 100 µM (inactive) | > 100 µM (inactive) | > 100 µM (inactive) | > 100 µM (inactive) | > 100 µM (inactive) | > 100 µM (inactive) | > 100 µM (inactive) | > 100 µM (inactive) | > 100 µM (inactive) | > 100 µM (inactive) | > 100 µM (inactive) | > 100 µM (inactive) | > 100 µM (inactive) | > 100 µM (inactive) | > 100 µM (inactive) | – |
| CN(C)CCNC(=O)c1cccc(NC(=O)c2ccccc2)c1[N+](=O)[O-] | > 100 µM (inactive) | > 100 µM (inactive) | > 100 µM (inactive) | > 100 µM (inactive) | > 100 µM (inactive) | – | – | > 100 µM (inactive) | > 100 µM (inactive) | > 100 µM (inactive) | > 100 µM (inactive) | 12.8 µM (inactive) | – | > 100 µM (inactive) | > 100 µM (inactive) | 8.65 µM (inactive) | > 100 µM (inactive) | 77.1 µM (inactive) | > 100 µM (inactive) | – |
| COc1ccc(/C=C2\Oc3cc(OC(C)=O)ccc3C2=O)cc1 | > 100 µM (inactive) | > 100 µM (inactive) | > 100 µM (inactive) | – | 94 µM (inactive) | > 100 µM (inactive) | > 100 µM (inactive) | > 100 µM (inactive) | > 100 µM (inactive) | > 100 µM (inactive) | > 100 µM (inactive) | – | 78.2 µM (inactive) | 73.6 µM (inactive) | > 100 µM (inactive) | > 100 µM (inactive) | > 100 µM (inactive) | > 100 µM (inactive) | > 100 µM (inactive) | – |
| Clc1nc(Cl)c(Cl)c(Cl)n1 | 16.7 µM (inactive) | 8.91 µM (inactive) | 19.6 µM (inactive) | – | 13.5 µM (inactive) | 23 µM (inactive) | 23 µM (inactive) | 13.6 µM (inactive) | 19.3 µM (inactive) | 6.21 µM (inactive) | 20.9 µM (inactive) | 16 µM (inactive) | 8.99 µM (inactive) | 5.15 µM (inactive) | 19.8 µM (inactive) | 8.57 µM (inactive) | 18.9 µM (inactive) | 17.6 µM (inactive) | 18.5 µM (inactive) | 11.3 µM (inactive) |
| COc1ccc(N2C(=O)/C(=C/c3ccc(N(CCC#N)CCC#N)cc3)N=C2c2ccccc2)cc1 | > 100 µM (inactive) | > 100 µM (inactive) | > 100 µM (inactive) | > 100 µM (inactive) | > 100 µM (inactive) | > 100 µM (inactive) | > 100 µM (inactive) | > 100 µM (inactive) | > 100 µM (inactive) | > 100 µM (inactive) | > 100 µM (inactive) | > 100 µM (inactive) | > 100 µM (inactive) | – | > 100 µM (inactive) | > 100 µM (inactive) | > 100 µM (inactive) | > 100 µM (inactive) | > 100 µM (inactive) | > 100 µM (inactive) |
| Cc1cc(C)c(S(=O)(=O)N2CCN(S(=O)(=O)c3c(C)cc(C)cc3C)OCCCCCO2)c(C)c1 | > 100 µM (inactive) | > 100 µM (inactive) | > 100 µM (inactive) | > 100 µM (inactive) | > 100 µM (inactive) | > 100 µM (inactive) | – | > 100 µM (inactive) | > 100 µM (inactive) | > 100 µM (inactive) | > 100 µM (inactive) | > 100 µM (inactive) | > 100 µM (inactive) | > 100 µM (inactive) | > 100 µM (inactive) | > 100 µM (inactive) | > 100 µM (inactive) | > 100 µM (inactive) | > 100 µM (inactive) | > 100 µM (inactive) |
| O=C1/C(=C/C=C/c2ccccc2)N=C(c2ccccc2)N1C1Nc2cc3c(cc2S1)NC(N1C(=O)/C(=C/C=C/c2ccccc2)N=C1c1ccccc1)S3 (configuration not stated) | 42.4 µM (inactive) | 41.8 µM (inactive) | > 100 µM (inactive) | > 100 µM (inactive) | 29.1 µM (inactive) | 73.8 µM (inactive) | > 100 µM (inactive) | 21.7 µM (inactive) | 67.6 µM (inactive) | 0.0117 µM (active) | 10.5 µM (inactive) | – | 0.311 µM (active) | 43.9 µM (inactive) | – | – | 28.1 µM (inactive) | 55 µM (inactive) | – | 48.8 µM (inactive) |
| COc1ccccc1/C=C1\NC(=S)N(/C=C2\C(=O)Oc3ccccc3C2=O)C1=O | 23.2 µM (inactive) | 55.6 µM (inactive) | > 100 µM (inactive) | 62.1 µM (inactive) | 9.84 µM (inactive) | 24.9 µM (inactive) | 25.5 µM (inactive) | 47 µM (inactive) | 45.2 µM (inactive) | 11 µM (inactive) | > 100 µM (inactive) | – | – | 23.4 µM (inactive) | 51.6 µM (inactive) | 45.3 µM (inactive) | 14.2 µM (inactive) | 23.9 µM (inactive) | 23.3 µM (inactive) | 60.5 µM (inactive) |
| CC(=O)O[C@H]1C(=O)[C@@]2(C)[C@H]([C@H](OC(=O)c3ccccc3)[C@]3(O)C[C@H](OC(=O)[C@H](O)[C@@H](NC(=O)CC(C)(C)C)c4ccccc4)C(C)=C1C3(C)C)C1(OC(C)=O)CO[C@@H]1C[C@@H]2O (some centres not stated) | 0.00441 µM (active) | 0.0764 µM (active) | 0.00671 µM (active) | 0.002 µM (active) | 0.00105 µM (active) | > 10 µM (inactive) | 0.00127 µM (active) | – | 0.0208 µM (active) | 0.00296 µM (active) | < 0.001 µM (active) | – | 0.00113 µM (active) | 0.00171 µM (active) | 0.00371 µM (active) | 0.0014 µM (active) | < 0.001 µM (active) | 0.00213 µM (active) | 0.00158 µM (active) | 0.00175 µM (active) |
